Data taken from publication PMC7377376, “Drug targeting CYP2E1 for the treatment of early-stage alcoholic steatohepatitis” (PLoS ONE, 2020).

Columns and labels:
ethanol-fed Wistar rats [1] = experiment: Liver and serum lipid parameters of ethanol-fed rats; assay type: in vivo, rat; details: for liver cholesterol decrease compared to disease group / reduction of ethanol effect on hepatic cholesterol / reduction of ethanol effect on hepatic triglycerides / liver phospholipids decrease compared to disease group / liver triglycerides decrease compared to disease group / reduction of ethanol effect on hepatic phospholipids: liver; for reduction of ethanol effect on hepatic triglycerides: average over 0.4/4/40 mg/kg b.w. (UDCA 40 mg/kg), oral, 10 weeks; for liver phospholipids decrease compared to disease group / liver triglycerides decrease compared to disease group / reduction of ethanol effect on hepatic phospholipids / reduction of ethanol effect on serum triglycerides / serum triglycerides decrease compared to disease group: average over doses (UDCA 40 mg/kg)
Description: (§1) A total of 68 female Wistar rats (Institute of Pharmacology and Biochemistry Breeding House, Minsk, Belarus) aged 80–90 days and weighting 180–200 g at the beginning of the experiments were used in the study. Each rat group (n = 6–8) was housed in a separate cage and had free access to the liquid diet during the full study period. Prior to the study, the animals were habituated for seven days to the cage conditions and experimental handling. The rats were maintained in a controlled experimental environment (20–25°C, 40–50% humidity, 12 h light per day, room with a 12-h light/dark cycle).
(§2) Rats were divided into ten groups characterized by the diet and the test compounds (S1 Table). Group 1 is the first control group in which a normal solid standard diet was fed for 12 weeks. All other groups received the liquid Lieber-DeCarli (LDC) diet (S2 Table), which combines food and drink in a liquid manner. It was prepared by ssniff Spezialdiäten GmbH, Soest. The addition of maltodextrin to this diet should compensate the pure caloric effect of ethanol, whereby 1.77 g maltodextrin replaces 1 g ethanol. The calorie value of both the control and ethanol diets was the same: 35% calories from fat, 11% from carbohydrates, 18% from protein and 36% from ethanol.
(§3) In the first two weeks rats of all groups–with the exception of group 1 –were fed with LDC diet plus maltodextrin in an appropriate amount to adapt the animals to the liquid diet. Group 2 is the second control group in which the isocaloric diet was administered for further 10 weeks until the end of the experiment. […] The test compounds I-ol, I-an and UDCA were dissolved in a 0.8% aqueous HPMC gel to obtain the appropriate concentrations: (1) I-ol with 0.4, 4 and 40 mg/kg b. w. (2) I-an with 0.4, 4 and 40 mg/kg b. w. (3) UDCA with 40 mg/kg b. w. Rats of group 2 and 3 received only HPMC as a placebo. The LDC diets were fed ad libitum and their intake per cage was controlled daily. The corresponding bottles were stored in the cages from 08:00 a. m. until 06:00 p. m. and replaced by drinking water bottles overnight until 08:00 a. m. in the next morning. Every day at the same time, the test compounds or only HPMC were administered intragastrically by oral gavage with an administration volume of 2 ml/kg b. w. After ten weeks of treatment, the rats were anesthetized with an intraperitoneal injection of a 5% pentobarbital solution and then killed by aorta scarification. Their livers were dissected and liver pieces frozen and stored in liquid nitrogen. A part of the liver was fixed for histological investigations. Blood was collected before sacrifice, centrifuged for serum preparation and finally stored in liquid nitrogen.
(§4) The serum marker enzyme activities, alanine aminotransferase (ALT), aspartate aminotransferase (AST), alkaline phosphatase (AP) and gamma-glutamyltransferase (γ-GT) as well as triglycerides and bilirubin were measured according to manufacturer’s instructions using standard commercial kits from Lachema (PLIVA-Lachema Diagnostika, Czech Republic). Serum concentrations of leptin, adiponectin and TNF-alpha were analyzed using commercial ELISA test kits: BioCat GmbH (Heidelberg, German) for adiponectin and TNF-alpha, BioVendor Laboratory Medicine Inc. (Brno, Czech Republic) for leptin. Insulin serum concentration was determined by radioimmunoassay using the commercially available kit RIO-insulin-PG-J125 (IBOCH, Minsk, Belarus). Glucose serum concentration was determined by the Accu-Check Active blood glucose testing system from Roche-Diagnostics GmbH (Mannheim, Germany).
Lipids were extracted with a chloroform: methanol mixture (2:1 v/v). Neutral lipids and phospholipids were separated into classes by thin-layer chromatography (TLC). Lipid fractions (triglycerides, cholesterol and its fractions) were measured in extracts from scraped spots by routine methods using the appropriate commercial kits. […]

ethanol-fed Wistar rats [2] = experiment: Serum liver enzyme activities of ethanol-fed rats; assay type: in vivo, rat; details: for reduction of ethanol effect on γ-GT activity: UDCA 40 mg/kg; for reduction of ethanol effect on ALT activity: average over 0.4/4/40 mg/kg b.w.; for γ-GT activity above the reference value of healthy animals: highest concentration
Description: as §1, §2, §3, §4

ethanol-fed Wistar rats [3] = experiment: Liver histopathology of ethanol-fed rats; assay type: in vivo, rat; details: I-ol, I-an in their higher concentrations; UDCA 40 mg/kg b.w.; H.E. staining
Procedure: as §3
Liver samples were selected randomly, fixed in Bouin`s solution and embedded in paraffin wax. Histological sections were prepared and stained with haematoxylin and eosin. Other liver samples were fixed in a solution containing formaldehyde, paraformaldehyde and glutaraldehyde with a subsequent post-fixation in 1% osmium containing phosphate buffer pH 7.4 for further analysis. Liver tissue was embedded in a mixture of butyl-methyl-metacrylates. Semifine sections of 0.5–1.0 μm were stained with Asur II, methylen blue and basic fuxine.

rat liver microsomes = experiment: Difference spectra titration of rat liver microsomes; details: one specific binding site
Procedure: Liver microsomes were prepared as follows: Rat liver was homogenized in 33 mM TRIS*HCl pH 7.4, 33 mM KCl, 1 mM EDTA, 250 mM sucrose and protease inhibitors. The homogenate was centrifuged first at 600 g then at 6,500 g for 10 minutes to separate nuclei and mitochondria. Supernatant was centrifuged at 105,000 g for 60 minutes. The pellet (microsomal fraction) was dissolved in 10 mM TRIS*HCl pH 7.4, 10 mM EDTA, 50% glycerol and stored at -80°C [20].
Difference spectra measurements were performed in tandem cuvettes at 37°C. The sample as well as the reference chamber contained rat liver microsomes in 100 mM HEPES buffer (pH 7.6). The baseline was recorded between 365 and 500 nm. Varying concentrations of 12-Imidazolyl-dodecan-1-yl-phosphocholine (5–95 μM) were added to rat microsomes. Difference spectra were obtained after the system reached equilibrium.

[4] = set-up: method as in earlier work; details: compared among I-ol, I-an and I-phosphocholines; ref "ω-imidazolyl-alkyl derivatives as new preclinical drug candidates for NASH therapy"; cited from earlier work
[5] = average over doses (UDCA 40 mg/kg)

Structure (SMILES) | liver cholesterol decrease compared to disease group (ethanol-fed Wistar rats [1]; UDCA 40 mg/kg) | reduction of ethanol effect on hepatic cholesterol (ethanol-fed Wistar rats [1]; UDCA 40 mg/kg) | reduction of ethanol effect on hepatic triglycerides (ethanol-fed Wistar rats [1]) [%] | liver phospholipids decrease compared to disease group (ethanol-fed Wistar rats [1]) [%] | liver triglycerides decrease compared to disease group (ethanol-fed Wistar rats [1]) [%] | reduction of ethanol effect on hepatic phospholipids (ethanol-fed Wistar rats [1]) | reduction of ethanol effect on serum VLDL (ethanol-fed Wistar rats [1]; serum, UDCA 40 mg/kg) [%] | serum VLDL decrease compared to disease group (ethanol-fed Wistar rats [1]; serum, average over doses) [%] | reduction of ethanol effect on serum triglycerides (ethanol-fed Wistar rats [1]; serum) [%] | serum triglycerides decrease compared to disease group (ethanol-fed Wistar rats [1]; serum) [%] | reduction of ethanol effect on γ-GT activity (ethanol-fed Wistar rats [2]) [%] | reduction of ethanol effect on ALT activity (ethanol-fed Wistar rats [2]) [%] | ALT activity decrease compared to disease group (ethanol-fed Wistar rats [2]; [5]) [%] | AST activity decrease compared to disease group (ethanol-fed Wistar rats [2]; [5]) [%] | reduction of ethanol effect on AST activity (ethanol-fed Wistar rats [2]; [5]) [%] | γ-GT activity decrease compared to disease group (ethanol-fed Wistar rats [2]; [5]) [%] | γ-GT activity above the reference value of healthy animals (ethanol-fed Wistar rats [2]) [%] | AST activity above the reference value of healthy animals (ethanol-fed Wistar rats [2]; lowest concentration) [%] | liver morphology (histopathology, in words) (ethanol-fed Wistar rats [3]) | also measured
CCCCCCCCCCCCn1ccnc1 [I-an, 1-Imidazolyldodecane] | 11% | 82% | 73 | 20 | 41 | completely eliminated | 59 | 18 | 83 | 41 | 60 | 59 | 24 | 11 | 48 | 33 | 12 | 6 | almost complete restoration of the physiological liver morphology | reduction of ethanol effect on serum LDL cholesterol (ethanol-fed Wistar rats [1]; serum, UDCA 40 mg/kg): 70%; serum LDL cholesterol decrease compared to disease group (ethanol-fed Wistar rats [1]; serum, average over doses): 24%; AP activity decrease compared to disease group (ethanol-fed Wistar rats [2]; [5]): 29%; reduction of ethanol effect on alkaline phosphatase (AP) activity (ethanol-fed Wistar rats [2]; on average (UDCA 40 mg/kg)): 96%
OCCCCCCCCCCCCn1ccnc1 [I-ol] | no influence | no influence | 71 | 13 | 40 | 65% | 55 | 17 | 91 | 44 | 68 | 70 | 29 | 14 | 60 | 37 | 28 | 6 | almost complete restoration of the physiological liver morphology | Kd (rat liver microsomes): 578 nM; reduction of ethanol effect on serum LDL cholesterol (ethanol-fed Wistar rats [1]; serum, lowest concentration): 61%; ALT activity (in words) (ethanol-fed Wistar rats [2]; lowest concentration): complete restoration of the basic activity; AP activity decrease compared to disease group (ethanol-fed Wistar rats [2]; lowest concentration): 27%; reduction of ethanol effect on alkaline phosphatase (AP) activity (ethanol-fed Wistar rats [2]; lowest concentration): 87%; tolerability in acute toxicity study (in words) [4]: best tolerated compound
